Columns and labels:
[1] = target: T1, cloned human ORL1/nociceptin receptors (Homo sapiens, UniProt P41146); assay: Functional blockade of agonist-mediated G-protein activation, GTP-γ-[35S] binding; format: biochemical
T1 construct: expressed in transfected cells
Source text: Agonist-mediated stimulation of G-protein coupled receptors results in the activation of membrane associated Gαβγ-protein heterotrimer complexes, and represents the first step in the transduction of extracellular signals to modification of intracellular pathways. The first step in activation of receptor-mediated activation of Gαβγ-proteins heterotrimer is the exchange of Gα subunit bound guanosine diphoshpate (GDP) for guanosine triphosphate (GTP). The binding of GTP to the Gα subunit causes dissociation of the heterotrimer subunits, Gβ and Gγ, resulting in the modulation of several intracellular signaling cascades. Measurement of receptor-mediated G-protein activation can be measured using the non-hydrolyzable radiolabeled analog of GTP, GTP-γ-[35S]. Utilizing this methodology, antagonist affinity (Kb) is measured in membranes expressing cloned human ORL1/nociceptin receptors using a GTP-γ-[35S] binding assay according to previously described protocols with minor modifications (DeLapp et al., J Pharmacol Exp Ther. 1999 May; 289(2):946-55; Ozaki et al., Eur J Pharmacol. 2000 Aug. 18; 402(1-2):45-53). Assays are conducted in a 200-μl volume with the following buffer composition: 100 mM NaCl, 20 mM HEPES, 5 mM MgCl2, 1 mM EDTA, 0.1% BSA, 3 μM GDP, 0.5 nM [^35S]GTPγS. ORL1 receptor membrane suspension is added at a concentration of 20 μg protein per well and receptor stimulation is achieved using 300 nM nociceptin/OFQ. Wheat germ agglutinin coated SPA beads (Amersham, Arlington Hts., Ill.) are added at 1 mg per well to detect membrane-bound [^35S]GTPγS. Plates are sealed and incubated for 2 hr. at room temperature. Plates are then placed at 4° C. overnight to allow the SPA beads to settle and then counted in a Wallac Microbeta. Specific [^35S]GTPγS binding is determined as the difference in CPM observed in the absence and presence of 10 μM unlabeled GTPγS. Data are plotted as the percent of specific [^35S]GTPγS bound. Curves are plotted as the percent of specific binding and IC50 values are determined using a sigmoidal dose response curve with variable slope. Antagonist affinity (Kb) is estimated according to DeLapp et al., 1999 using a modification of the equation of Cheng and Prusoff (1973) where Kb=IC50×(1+D×EC50^−1)^−1.

[2] = target: human ERG (hERG) K+ channel (Homo sapiens, UniProt Q12809); assay: hERG channel [3H]astemizole binding assay; conditions: HEK293 cells expressing cloned hERG, [3H]astemizole 2 nM; read-out: Ki for hERG K+ channel
Protocol: Blockade of K^+-channel conductance in the heart is associated with cardiotoxicity in the form of QT-wave prolongation. The affinity (Ki) of the exemplified nociceptin receptor antagonists for the human ERG (hERG) K^+ channel is determined in HEK293 cells expressing cloned hERG using the hERG channel antagonist radioligand [3H]astemizole (2 nM final assay concentration) according to well known procedures (see for example Finlayson K, et al. (Eur J Pharmacol. 412(3):203-12, 2001) [3H]Astemizole binding assays are performed at the contract research company Cerep (Paris France) according to standard procedures.

[3] = target: T2, nociceptin/ORL1 receptors (Rattus norvegicus, UniProt P35370); assay: In vivo receptor occupancy (LC/MS/MS, RO Tracer) in hypothalamus; conditions: oral 3 mg/kg dose after 6 hr.
T2 construct: rats are sacrificed by cervical dislocation and the hypothalamus is removed; from tissue; host or cells: rat hypothalamus (in vivo occupancy)

[4] = system: wild type and ORL knockout mice; assay: Blockade of fasting-induced hyperphagia in mice; format: in vivo, mouse; conditions: wild type mice, oral gavage 30 min. prior to food, food intake 1 hr
Source text: Blockade of fasting-induced hyperphagia in rats is an accepted model for hyperphagic eating disorders. […] Mice are individually housed a minimum of 3 days prior to the onset of testing to eliminate any effects of stress due to the change from group to individual housing. Three mice/genotype are randomly assigned to each treatment group on the test day. Pre-fast body weight measurements are taken, and food is then removed from cages overnight. Mice are fasted for approximately 15 hr. The next morning, the mice are given one of three doses of drug or vehicle via oral gavage 30 min. prior to gaining access to food. Drugs are dissolved in 20% Captisol dissolved in 25 mM phosphate buffer, pH 2.0. Measurements of body weight are taken immediately prior to drug treatment or 24 hr. after access to food is restored. […] Measurements of food intake are recorded 1 hr following access to food, as indicated, by weight of food remaining at 1 hr. It should be noted that food intake measured is during the light phase, a time during which mice are typically at rest and not normally eating. Following initial testing, mice are rested for 1 week with access to unlimited chow.

5-HT1E = 5-HT1E (Homo sapiens, UniProt P28566); assay: Radioligand binding selectivity
Protocol: (§1) Radioligand binding assays are commonly used to determine the affinity (Ki) or potency of a compound to bind to a particular receptor or target protein. A filtration-based [3H]-OFQ/nociceptin receptor binding assay is developed based on previous assay formats (Ardati A, Henningsen R A, Higelin J, Reinscheid R K, Civelli O, Monsma F J Jr. Mol. Pharmacol. 1997 May; 51(5):816-24.) with minor modifications. [3H]-OFQ/nociceptin binding assays are carried out in deep-well 96-well plates. [^3H]OFQ (final assay concentration 0.2 nM) competition studies are carried out with 5-10 μg of membrane protein (isolated from Chinese hamster ovary cells (CHO cells) expressing cloned human ORL1 receptors) in a final assay volume of 0.5 mL of buffer containing 20 mM HEPES, pH 7.4, 5 mM MgCl2, 1 mM EGTA, 100 mM NaCl, 0.1% bovine serum albumin. Samples are incubated for 60 min. at room temperature, which is found to be optimal for competition assays. The assays are terminated by filtration through glass fiber filters (Wallac filtermat A) [pretreated with 0.3% polyethylenimine (Sigma) for 1 hr] on a Tometc cell harvester, and the filters are washed three times with 5 mL of ice-cold 50 mM Tris.HCl, pH 7.4. Filtermats are then dried and imbedded with Meltilex scintillant A and the radioactivity counted in a Wallac Microbeta scintillation counter. Specific binding is determined by displacement with 100 nM unlabeled nociceptin. Curves are plotted as the percent of specific binding and IC50 values are determined using a sigmoidal dose response curve with variable slope. K, values are calculated from the IC50 by the equation of Cheng and Prusoff (Cheng, Y. C., and Prusoff, W. H., Biochem. Pharmacol. 22, 3099-3108 (1973)) where Ki=IC50×(1+D×Kd^−1)^−1. Similarly, Ki for the mu, kappa and delta opioids, serotonin, adrenergic, and muscarinic receptors may be determined using membranes expressing the desired receptor and appropriate corresponding radioligand competitor molecules.

5-HT1A = 5-HT1A (Homo sapiens, UniProt P08908); assay: Radioligand binding selectivity
Protocol: as §1

Muscarinic M4 = Muscarinic M4 (Homo sapiens, UniProt P08173); assay: Radioligand binding selectivity
Protocol: as §1

T1 sequence (P41146 whole entry): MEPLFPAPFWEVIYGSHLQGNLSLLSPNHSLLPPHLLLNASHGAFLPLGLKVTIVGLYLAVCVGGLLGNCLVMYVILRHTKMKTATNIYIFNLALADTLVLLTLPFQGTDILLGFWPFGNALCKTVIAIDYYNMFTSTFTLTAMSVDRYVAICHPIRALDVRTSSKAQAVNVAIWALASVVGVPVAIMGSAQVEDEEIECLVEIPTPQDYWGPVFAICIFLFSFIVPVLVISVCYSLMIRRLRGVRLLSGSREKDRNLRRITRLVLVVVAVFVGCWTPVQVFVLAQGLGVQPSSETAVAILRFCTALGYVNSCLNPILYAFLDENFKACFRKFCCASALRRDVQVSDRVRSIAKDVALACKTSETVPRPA
Chain of Muscarinic M4 (P08173 whole entry): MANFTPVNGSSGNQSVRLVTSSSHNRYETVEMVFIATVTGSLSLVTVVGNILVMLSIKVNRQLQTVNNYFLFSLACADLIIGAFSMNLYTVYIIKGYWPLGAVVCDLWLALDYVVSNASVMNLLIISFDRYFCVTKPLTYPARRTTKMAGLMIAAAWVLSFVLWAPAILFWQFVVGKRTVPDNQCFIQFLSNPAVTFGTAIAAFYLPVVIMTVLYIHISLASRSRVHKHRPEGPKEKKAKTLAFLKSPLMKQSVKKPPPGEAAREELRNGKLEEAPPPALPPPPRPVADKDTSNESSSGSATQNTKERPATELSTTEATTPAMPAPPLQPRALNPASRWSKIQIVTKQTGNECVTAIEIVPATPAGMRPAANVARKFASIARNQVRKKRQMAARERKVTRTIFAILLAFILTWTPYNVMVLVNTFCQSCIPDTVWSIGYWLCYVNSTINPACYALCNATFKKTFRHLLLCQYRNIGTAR
Chain of 5-HT1A (P08908 whole entry, species assumed): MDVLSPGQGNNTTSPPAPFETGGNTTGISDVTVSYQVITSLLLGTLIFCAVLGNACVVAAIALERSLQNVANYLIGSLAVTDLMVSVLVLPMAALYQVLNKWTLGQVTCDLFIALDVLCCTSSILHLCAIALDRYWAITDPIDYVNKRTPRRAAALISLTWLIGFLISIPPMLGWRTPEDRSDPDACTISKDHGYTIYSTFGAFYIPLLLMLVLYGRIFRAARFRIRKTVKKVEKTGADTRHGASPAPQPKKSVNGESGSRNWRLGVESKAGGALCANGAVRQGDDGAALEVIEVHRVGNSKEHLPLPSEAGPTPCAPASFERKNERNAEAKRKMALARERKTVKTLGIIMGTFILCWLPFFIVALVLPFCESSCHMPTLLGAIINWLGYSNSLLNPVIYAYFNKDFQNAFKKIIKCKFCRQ
T2 sequence (P35370 whole entry): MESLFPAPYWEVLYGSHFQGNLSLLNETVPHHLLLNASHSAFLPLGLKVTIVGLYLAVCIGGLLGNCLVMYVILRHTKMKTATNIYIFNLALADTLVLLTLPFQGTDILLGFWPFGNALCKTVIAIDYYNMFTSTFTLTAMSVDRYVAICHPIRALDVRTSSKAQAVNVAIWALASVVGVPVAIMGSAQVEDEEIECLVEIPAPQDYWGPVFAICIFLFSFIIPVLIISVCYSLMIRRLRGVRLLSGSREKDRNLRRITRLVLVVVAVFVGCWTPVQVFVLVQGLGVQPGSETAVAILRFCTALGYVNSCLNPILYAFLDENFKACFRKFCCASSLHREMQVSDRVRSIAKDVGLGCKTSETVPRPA
Chain of human ERG (hERG) K+ channel (Q12809 whole entry): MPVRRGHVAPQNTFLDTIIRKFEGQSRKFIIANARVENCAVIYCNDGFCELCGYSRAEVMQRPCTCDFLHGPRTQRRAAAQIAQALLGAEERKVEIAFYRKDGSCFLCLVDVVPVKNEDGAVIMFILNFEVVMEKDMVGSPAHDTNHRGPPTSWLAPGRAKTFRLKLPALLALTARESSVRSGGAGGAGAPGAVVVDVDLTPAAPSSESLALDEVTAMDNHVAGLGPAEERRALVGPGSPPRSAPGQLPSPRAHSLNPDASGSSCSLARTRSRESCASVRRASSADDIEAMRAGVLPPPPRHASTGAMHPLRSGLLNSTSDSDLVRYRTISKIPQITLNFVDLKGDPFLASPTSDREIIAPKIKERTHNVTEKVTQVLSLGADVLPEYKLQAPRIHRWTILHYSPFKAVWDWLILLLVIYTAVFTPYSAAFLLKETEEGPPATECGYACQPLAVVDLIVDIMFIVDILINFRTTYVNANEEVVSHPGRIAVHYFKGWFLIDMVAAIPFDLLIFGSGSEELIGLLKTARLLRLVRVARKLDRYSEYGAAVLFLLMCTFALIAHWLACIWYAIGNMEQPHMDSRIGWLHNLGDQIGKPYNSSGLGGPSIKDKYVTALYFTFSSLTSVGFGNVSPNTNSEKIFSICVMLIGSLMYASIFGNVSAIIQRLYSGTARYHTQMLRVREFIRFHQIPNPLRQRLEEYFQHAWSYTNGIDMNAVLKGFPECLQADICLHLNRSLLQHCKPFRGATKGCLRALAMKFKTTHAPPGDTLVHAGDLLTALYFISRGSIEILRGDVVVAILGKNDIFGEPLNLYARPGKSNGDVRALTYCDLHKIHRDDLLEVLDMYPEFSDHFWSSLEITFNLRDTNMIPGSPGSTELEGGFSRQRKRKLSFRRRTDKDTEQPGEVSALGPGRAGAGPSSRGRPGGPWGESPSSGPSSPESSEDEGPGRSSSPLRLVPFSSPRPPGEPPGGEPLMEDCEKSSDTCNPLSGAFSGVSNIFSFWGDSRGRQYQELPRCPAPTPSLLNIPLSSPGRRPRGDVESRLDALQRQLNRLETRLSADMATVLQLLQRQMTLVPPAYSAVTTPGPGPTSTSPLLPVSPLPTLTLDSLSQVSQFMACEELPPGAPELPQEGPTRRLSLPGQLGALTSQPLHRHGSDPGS
Chain of 5-HT1E (P28566 whole entry, species assumed): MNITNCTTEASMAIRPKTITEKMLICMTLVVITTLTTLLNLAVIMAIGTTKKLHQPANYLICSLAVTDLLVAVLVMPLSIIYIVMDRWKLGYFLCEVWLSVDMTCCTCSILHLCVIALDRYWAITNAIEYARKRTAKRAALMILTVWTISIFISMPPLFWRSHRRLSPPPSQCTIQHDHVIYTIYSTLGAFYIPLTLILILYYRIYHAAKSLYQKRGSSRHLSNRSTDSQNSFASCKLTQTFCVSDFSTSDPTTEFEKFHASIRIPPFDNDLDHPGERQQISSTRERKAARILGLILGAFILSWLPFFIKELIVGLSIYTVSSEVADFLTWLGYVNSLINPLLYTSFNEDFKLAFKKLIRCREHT

In the case of `Cc1nn(-c2c(F)cccc2F)cc1CN1CCC2(CC1)OCC(F)(F)c1cc(Cl)sc12.O=C(O)C(O)C(O)C(=O)O` [Example 2, 2-Chloro-1′-[[1-(2,6-difluorophenyl)-3-methyl-pyrazol-4-yl]methyl]-4,4-difluoro-spiro[5H-thieno[2,3-c]pyran-7,4′-piperidine] (L)-Tartrate], the Kb [1] is reported as 0.00043 µM, the Ki [2] is reported as 2.89 µM and the receptor occupancy at 3 mg/kg [3] is reported as 76%. The fasting-induced hyperphagia [4] was “substantially block fasting-induced hyperphagia”, the Ki (5-HT1E) was over 5.37 µM and the Ki (5-HT1A) was over 3.18 µM. It also gave a Ki (Muscarinic M4) of 6.36 µM.

— patent US20120214784A1, “SPIROPIPERIDINE COMPOUNDS AS ORL-1 RECEPTOR ANTAGONISTS” (ELI LILLY AND COMPANY, priority 2009, published 2012)
